Among the test systems are NCI-H522 lung; A498 renal; KM20L2 colon; A549 NSCLC; HCT-15 colon; RXF 393 renal; SNB-78 CNS; ACHN renal; CAKI-1 renal; MDA-MB-435.
Assay in all cases: NCI anticancer screen, dose series, 48 h

Where “and” joins values, the source holds several entries; their conditions need not be identical. Equal entries are not always repeated.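 Interpolation was linear, between the two tested concentrations surrounding the appropriate level; five concentrations were tested over 48 hours in 96-well plates. The concentration for 50% growth inhibition is given as GI50. TGI denotes the concentration required for complete inhibition of growth.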

Turning to `CN(C)CCNC(=O)c1cc2ccccc2c2nc3ccccc3nc12`, the TGI is > 100 µM in the assay on NCI-H522 lung; 2.4 µM with A498 renal; 2.93 µM in the assay with KM20L2 colon; > 44.4 µM in the assay on A549 NSCLC; 3.24 µM in the assay on HCT-15 colon; 2.33 µM in the assay on RXF 393 renal. For the same compound, the results for the TGI with SNB-78 CNS, in the assay on ACHN renal and in the assay with CAKI-1 renal were 16.4 µM, 2.1 µM and > 21.3 µM, respectively.
Consider `CC1=NN(c2ccccc2)C(=O)C1=C1SCCS1`, for which the TGI was 97.1 µM in the assay on NCI-H522 lung; > 100 µM with A498 renal; > 100 µM in the assay on KM20L2 colon; > 100 µM in the assay with A549 NSCLC; > 59.7 µM in the assay with HCT-15 colon; > 65.4 µM with RXF 393 renal. Besides, the TGI in the assay with SNB-78 CNS, in the assay on ACHN renal and in the assay with CAKI-1 renal was > 100 µM each time.
In the case of `COC(=O)C1=C(O)c2cc(OC)c(OC)c(OC)c2[C@H](c2cc(OC)c(OC)c(OC)c2)C1C(=O)OC` (some centres not stated), the TGI with NCI-H522 lung is 43.5 µM; with A498 renal, > 100 µM; in the assay on KM20L2 colon, 37.5 µM; in the assay on A549 NSCLC, > 100 µM; in the assay with HCT-15 colon it was > 100 µM; in the assay on RXF 393 renal, 59.5 µM. The TGI with SNB-78 CNS, in the assay with ACHN renal and with CAKI-1 renal was > 100 µM in each case.
In the case of `C/C(CC(=O)Nc1ccc(Cl)c(Cl)c1)=N/NC(=O)C[n+]1ccccc1`, the TGI in the assay with NCI-H522 lung, with A498 renal, with KM20L2 colon, in the assay on A549 NSCLC, with HCT-15 colon and in the assay with RXF 393 renal was > 100 µM in each case. Further, the TGI in the assay with SNB-78 CNS, in the assay with ACHN renal and in the assay on CAKI-1 renal was > 100 µM throughout.
Consider `CCC[CH2][Sn]1([CH2]CCC)[O]C(=O)c2cc(I)cc(I)c2[O]1`, for which the GI50 was 0.143 µM in the assay on NCI-H522 lung; 1.37 µM with A498 renal; 1.84 µM with KM20L2 colon; 2.72 µM in the assay with A549 NSCLC; 1.28 µM in the assay with HCT-15 colon; 0.559 µM in the assay on RXF 393 renal. Further, the GI50 is 0.536 µM in the assay on SNB-78 CNS, 1.35 µM in the assay with ACHN renal and 0.637 µM with CAKI-1 renal. Further, the TGI in the assay on NCI-H522 lung amounted to 0.323 µM; in the assay on A498 renal, 2.67 µM; in the assay with KM20L2 colon, 3.39 µM; with A549 NSCLC, 8.41 µM; in the assay with HCT-15 colon, 2.93 µM; with RXF 393 renal it was 1.97 µM. Besides, the TGI in the assay on SNB-78 CNS is 2.37 µM; in the assay with ACHN renal, 2.63 µM; with CAKI-1 renal, 2.15 µM.
Take `Cc1c(Cl)ccc2c1NC(=O)C2(O)C(C(=O)c1ccccc1)c1ccccc1` (configuration not stated): the TGI was 93.7 µM in the assay on NCI-H522 lung; 70.1 µM with A498 renal; > 100 µM with KM20L2 colon; > 100 µM in the assay on A549 NSCLC; > 100 µM in the assay with HCT-15 colon; 73.8 µM in the assay with RXF 393 renal. Also, the TGI in the assay on SNB-78 CNS, in the assay on ACHN renal and with CAKI-1 renal was > 100 µM in each case.
For the compound `CCC(C)(C)C(=O)O[C@H]1C[C@@H](C)C=C2C=C[C@H](C)[C@H](CC[C@@H]3C[C@@H](O)CC(=O)O3)[C@H]21`, the GI50 in the assay with NCI-H522 lung was 0.826 µM; in the assay on A498 renal it was 0.156 µM; in the assay on MDA-MB-435, 8.03 µM; in the assay with A549 NSCLC, 6.79 µM; in the assay on HCT-15 colon it was 2.15 µM; in the assay on RXF 393 renal, 2.06 µM. Also, the GI50 in the assay on ACHN renal was 0.882 µM; in the assay on CAKI-1 renal it was 0.941 µM. Also, the TGI in the assay on NCI-H522 lung is 5.26 µM; in the assay with MDA-MB-435 it was 21 µM; in the assay on KM20L2 colon, > 30 µM; with A549 NSCLC it was 20.4 µM and 18.8 µM; with HCT-15 colon it was 19 µM and > 30 µM; in the assay with RXF 393 renal, 8.5 µM and 2.48 µM. Besides, the TGI in the assay with SNB-78 CNS is > 30 µM; in the assay with ACHN renal, 10.3 µM and 2.38 µM; in the assay on CAKI-1 renal, 3.73 µM and 8.56 µM.
For `COc1ccc2c(=O)c(C)c(-c3ccccc3)oc2c1CN(C)C`, the TGI with NCI-H522 lung, in the assay on A498 renal, with KM20L2 colon, in the assay with A549 NSCLC, with HCT-15 colon and in the assay on RXF 393 renal was > 100 µM throughout. The TGI in the assay on SNB-78 CNS, in the assay on ACHN renal and in the assay on CAKI-1 renal was > 100 µM in each case.
Turning to `CCCN(CCCCC(NC(C)=O)C(=O)NCc1ccccc1)C(=O)N(C)N=O` (configuration not stated), the TGI with NCI-H522 lung, in the assay on A498 renal, in the assay on KM20L2 colon, in the assay on A549 NSCLC, in the assay on HCT-15 colon and with RXF 393 renal was > 100 µM each time. For the same compound, the TGI in the assay with SNB-78 CNS, in the assay on ACHN renal and in the assay with CAKI-1 renal was > 100 µM each time.
With `COC(=O)NC1C(C)OC(OC2C/C=C(/C)C3C=CC4C(OC5CC(OC6CC(O)C(OC7CC(O)C(OC)C(C)O7)C(C)O6)C(O)C(C)O5)C(C)CC(C)C4C3(C)/C(O)=C3\C(=O)OC4(CC(C)C(CO)=CC4/C=C\2C)C3=O)CC1(C)[N+](=O)[O-]` (configuration not stated), the TGI with NCI-H522 lung is 11.7 µM and 22.7 µM; with A498 renal it was 22.8 µM and 29.8 µM; in the assay with MDA-MB-435, 17 µM; with KM20L2 colon, 34 µM; with A549 NSCLC it was 50 µM and 58.5 µM; in the assay on HCT-15 colon it was 50 µM and 40.8 µM. Moreover, the TGI in the assay on RXF 393 renal was 21.4 µM and 30.7 µM; in the assay on SNB-78 CNS, 29.8 µM; with ACHN renal it was 35.5 µM and 30.6 µM; in the assay on CAKI-1 renal, 47.3 µM and 41.1 µM. Moreover, the GI50 is 9.82 µM in the assay with A498 renal, 25.7 µM in the assay on A549 NSCLC, 8.97 µM with RXF 393 renal and 14.8 µM with ACHN renal.

The record behind these values is PubChem BioAssay (NCI).
